Data reported in US9650339B2, “Inhibitors of histone demethylases” (Gilead Sciences, Inc., priority 2013, dated 2017).

Key:
[1] = biological target: T1, KDM4A (JMJD2A) (Homo sapiens, UniProt O75164); assay: Histone lysine demethylase AlphaLISA assay, KDM4A; format: biochemical; conditions: read-out: KDM4A HDME Inhibition IC50
T1 construct: 1-350; purchased BPS Bioscience, US; host or cells: E. coli
T1 sequence (O75164 1-350): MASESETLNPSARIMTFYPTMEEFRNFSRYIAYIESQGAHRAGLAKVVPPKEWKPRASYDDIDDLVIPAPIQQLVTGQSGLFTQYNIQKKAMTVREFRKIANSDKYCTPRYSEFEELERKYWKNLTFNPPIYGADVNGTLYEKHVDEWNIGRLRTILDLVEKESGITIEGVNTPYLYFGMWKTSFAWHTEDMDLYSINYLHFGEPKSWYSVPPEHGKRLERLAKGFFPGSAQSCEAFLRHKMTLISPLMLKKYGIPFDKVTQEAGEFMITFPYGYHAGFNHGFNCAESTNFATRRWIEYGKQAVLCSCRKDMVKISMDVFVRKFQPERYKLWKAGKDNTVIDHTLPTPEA
Procedure: Assays are performed analogously to the protocol described by PerkinElmer (Roy et al. PerkinElmer Technical Note: AlphaLISA #12, April 2011)
Enzymes are dissolved in enzyme buffer and incubated for 10 min before being added to 3% DMSO solutions of compounds in enzyme buffer. Incubated for another 10 minutes, before substrate solution is added and the reaction mixture is incubated at room temperature. 10 μL acceptor beads, suspended in Epigenetic Buffer (Perkin Elmer AL008) from stock, are added and the suspension is incubated in the dark at room temperature, before a suspension of streptavidin donor beads (Perkin Elmer 6760002) in Epigenetic Buffer is added. After incubation at room temperature in the dark the plates are read.
BK9M3: Biotin-ARTKQTAR(KMe3)STGGKAPRKQ-NH2 (Caslo, Denmark) […]
Substrate Solution: Substrate, 25 μM L-Asc, and 10 μM α-KG in Buffer A.

[2] = biological target: T2, KDM4C (Homo sapiens, UniProt Q9H3R0); assay: Histone lysine demethylase immunofluorescence assay, U2OS cells transfected with KDM4C; format: cell-based; conditions: U2OS cells transfected with pCMVHA KDM4C; mark detected H3K9me3; 20 hours
T2 construct: Full length; host or cells: U2OS
T2 sequence (Q9H3R0 1-1056): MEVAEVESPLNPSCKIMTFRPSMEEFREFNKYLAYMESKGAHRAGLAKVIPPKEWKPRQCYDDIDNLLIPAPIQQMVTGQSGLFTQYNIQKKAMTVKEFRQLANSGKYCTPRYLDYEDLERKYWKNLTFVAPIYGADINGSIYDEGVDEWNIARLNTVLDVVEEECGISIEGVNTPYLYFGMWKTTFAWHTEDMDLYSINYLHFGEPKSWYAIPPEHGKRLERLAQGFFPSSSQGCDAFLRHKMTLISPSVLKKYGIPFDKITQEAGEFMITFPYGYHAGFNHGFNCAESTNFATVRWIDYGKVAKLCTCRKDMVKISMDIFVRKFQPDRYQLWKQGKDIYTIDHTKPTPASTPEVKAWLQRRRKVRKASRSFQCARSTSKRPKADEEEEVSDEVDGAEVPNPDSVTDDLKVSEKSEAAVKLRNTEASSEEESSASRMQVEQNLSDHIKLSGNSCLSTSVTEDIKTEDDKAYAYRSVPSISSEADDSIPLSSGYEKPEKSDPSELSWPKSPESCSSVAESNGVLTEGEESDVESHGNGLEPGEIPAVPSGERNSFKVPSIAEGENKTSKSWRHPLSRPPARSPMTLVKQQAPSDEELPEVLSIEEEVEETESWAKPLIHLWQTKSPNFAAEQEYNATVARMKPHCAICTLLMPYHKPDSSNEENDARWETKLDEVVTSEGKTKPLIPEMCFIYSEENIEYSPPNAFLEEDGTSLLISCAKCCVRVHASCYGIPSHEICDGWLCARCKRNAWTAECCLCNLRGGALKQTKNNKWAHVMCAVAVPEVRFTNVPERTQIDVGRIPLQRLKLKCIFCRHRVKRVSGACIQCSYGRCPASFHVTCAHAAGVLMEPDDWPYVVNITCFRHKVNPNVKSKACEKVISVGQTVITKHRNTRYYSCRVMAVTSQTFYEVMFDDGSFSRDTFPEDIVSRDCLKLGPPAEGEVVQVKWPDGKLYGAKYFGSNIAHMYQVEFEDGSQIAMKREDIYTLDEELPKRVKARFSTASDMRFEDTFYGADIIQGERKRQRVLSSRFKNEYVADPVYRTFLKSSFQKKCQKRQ
Procedure: U2OS cells were seeded 24 hours before transfection. Transfection was performed with Fugene HD transfection reagent as recommended by the manufacturer. 6 hours after transfection, the cells were harvested and seeded into multi well plates into media containing compound. The media used was DMEM containing 10% FBS and pen/strep. 20 hours after incubation of cells with compounds, the cells were washed in PBS, harvested by fixation with formaldehyde 4% aqueous solution, and washed in PBS. Subsequently, the cells were permeabilized in PBS with 0.2% Triton X-100 for. Blocking was performed in PBS with 0.2% Triton X-100 and 5% FBS. The cells were incubated with primary antibodies in blocking solution over night at 4° C. The primary antibodies used in the assays were HA.11 (Covance, MMS-101P) and the antibody detecting the mark specified in the table below. After incubation with primary antibodies, the cells were washed with PBS, incubated with secondary antibodies (Alexa fluor 594 goat anti rabbit IgG, Invitrogen, A11012; Alexa flour 488 donkey anti mouse IgG, Invitrogen, A21202) and Hoechst, (Sigma, 33342) in blocking solution, and washed again with PBS. Finally, PBS was added and high throughput imaging and analysis were performed by an IN Cell Analyzer 1000 (GE Healthcare). The robot software analyzed individual cells and divided these into HA+ (transfected cells) and HA− (non-transfected cells). The IC50 values were based on an average measure of the staining of the mark specified in the table below in the transfected cells.

| Compound | IC50 [1] [µM] | IC50 [2] [µM] |
| --- | --- | --- |
| CCN(CCN(C)C)C(=O)CNCc1cc(CN)ccn1 [Compound 4, 2-({[4-(aminomethyl)pyridin-2-yl]methyl}amino)-N-[2-(dimethylamino)ethyl]-N-ethylacetamide] | 0.25 to 2.5 | 0.25 to 2.5 |
| CCN(CC)CCCCNCc1cc(CN)ccn1 [Compound 5, [2-({[4-(diethylamino)butyl]-amino}methyl)pyridin-4-yl]methanamine] | > 2.5 | 0.25 to 2.5 |
| CCN(CC)CCCCN(Cc1cc(CNC(=O)C(F)(F)F)ccn1)C(=O)C(F)(F)F [Compound 6, N-[4-(diethylamino)butyl]-- 2,2,2-trifluoro-N-({4-[(trifluoroacetamido)-methyl]pyridin-2-yl}methyl)acetamide] | 0.25 to 2.5 | > 2.5 |
| NCc1ccnc(CNCCCCN2CCC2)c1 [Compound 7, [2-({[4-(azetidin-1-yl)butyl]amino}methyl)-pyridin-4-yl]-methanamine] | > 2.5 | > 2.5 |
| CN(C)CCCCCNCc1cc(CN)ccn1 [Compound 8, [2-({[5-(dimethylamino)pentyl]-amino}methyl)pyridin-4-yl]methanamine] | > 2.5 | 0.25 to 2.5 |
| COc1ccccc1CN1CCC(NC(=O)CNCc2cc(CN)ccn2)CC1 [Compound 9, 2-({[4-(aminomethyl)pyridin-2-yl]methyl}amino)-N-{1-[(2-methoxyphenyl)methyl]-piperidin-4-yl}acetamide] | > 2.5 | > 2.5 |
| CN(C)CCCCNCc1cc(CNC2CC2)ccn1 [Compound 10, N-{[2-({[4-(dimethylamino)butyl]-amino}methyl)pyridin-4-yl]methyl}-cyclopropanamine] | > 2.5 | > 2.5 |
| CC1CCCCN1CCCNCc1cc(CNC2CC2)ccn1 (centres unmarked) [Compound 11, N-{[2-({[3-(2-methylpiperidin-1-yl)propyl]amino}methyl)-pyridin-4-yl]methyl}-cyclopropanamine] | > 2.5 | > 2.5 |
| CCCNCc1cc(CNC2CC2)ccn1 [Compound 12, N-({2-[(propylamino)methyl]-pyridin-4-yl}methyl)-cyclopropanamine] | > 2.5 | > 2.5 |
| CN(C)C(=O)CNCc1cc(CNCC#N)ccn1 [Compound 13, 2-{[(4-{[(cyanomethyl)amino]-methyl}pyridin-2-yl)methyl]amino}-N,N-dimethylacetamide] | > 2.5 | 0.25 to 2.5 |
| CN(C)C(=O)CNCc1cc(CNCCF)ccn1 [Compound 14, 2-{[(4-{[(2-fluoroethyl)amino]-methyl}pyridin-2-yl)methyl]amino}-N,N-dimethylacetamide] | > 2.5 | > 2.5 |
| CN(C)CCNCc1ccnc(CNCC(=O)N(C)C)c1 [Compound 15, 2-({[4-({[2-(dimethylamino)ethyl]-amino}methyl)pyridin-2-yl]methyl}amino)-N,N-dimethylacetamide] | > 2.5 | > 2.5 |
| CNCc1ccnc(CNCCCN(C)Cc2ccccc2)c1 [Compound 17, benzyl(methyl){3-[({4-[(methylamino)methyl]-pyridin-2-yl)methyl)-amino]propyl}-amine] | > 2.5 | > 2.5 |
| CN(C)CCNCc1cc(CNC(C#N)C2CC2)ccn1 (centres unmarked) [Compound 21, 2-cyclopropyl-2-({[2-({[2-(dimethylamino)ethyl]-amino}methyl)pyridin-4-yl]methyl}amino)-acetonitrile] | > 2.5 | > 2.5 |
| CC(C#N)NCc1ccnc(CNCCCN(C)C)c1 (centres unmarked) [Compound 22, 2-({[2-({[3-(dimethylamino)propyl]-amino}methyl)pyridin-4-yl]methyl}amino)-propanenitrile] | > 2.5 | > 2.5 |
| N#CCNCc1ccnc(CNCCCCN(Cc2ccccc2)C2CC2)c1 [Compound 23, 2-[({2-[({4-[benzyl(cyclopropyl)-amino]butyl}amino)-methyl]pyridin-4-yl}methyl)amino]-acetonitrile] | > 2.5 | > 2.5 |
| CNC(C#N)c1ccnc(CNCCCN(C)C)c1 (centres unmarked) [Compound 24, 2-[2-({[3-(dimethylamino)propyl]-amino}methyl)pyridin-4-yl]-2-(methylamino)-acetonitrile] | 0.25 to 2.5 | > 2.5 |
| CN(C)C(=O)CNCc1cc(/C=N\C2CC2)ccn1 [Compound 33] | < 0.25 | 0.25 to 2.5 |
| CN(C)C(=O)CNCc1cc(/C=N/CCCc2ccccc2)ccn1 [Compound 34, N,N-dimethyl-2-[({4-[[(3-phenylpropyl)imino]-methyl]pyridin-2-yl}methyl)amino]-acetamide] | > 2.5 | > 2.5 |
| CC1CC1/N=C/c1ccnc(CNCC(=O)N(C)C)c1 (centres unmarked) [Compound 35, N,N-dimethyl-2-[({4-[N-(2-methylcyclopropyl)-carboximidoyl]pyridin-2-yl}methyl)amino]-acetamide] | < 0.25 | 0.25 to 2.5 |
| CN(C)C(=O)CNCc1cc(/C=N/CCC2CCCCC2)ccn1 [Compound 36, 2-[({4-[[(2-cyclohexylethyl)imino]-methyl]pyridin-2-yl}methyl)amino]-N,N-dimethylacetamide] | 0.25 to 2.5 | > 2.5 |
| CN(C)CCC/N=C/c1ccnc(CNCCCN(C)C)c1 [Compound 37, [3-(dimethylamino)propyl]-({4-[{[3-(dimethylamino)propyl]-imino}methyl]pyridin-2-yl}methyl)amine] | > 2.5 | 0.25 to 2.5 |
| CN(C)CCCNCc1cc(/C=N/CCN(C)C)ccn1 [Compound 38, ({4-[{[2-(dimethylamino)ethyl]-imino}methyl]pyridin-2-yl}methyl)[3-(dimethylamino)-propyl]amine] | > 2.5 | > 2.5 |
| CCSCCNCc1cc(/C=N/C2CC2)ccn1 [Compound 39, N-{[2-({[2-(ethylsulfanyl)-ethyl]amino}methyl)pyridin-4-yl]methylidene}-cyclopropanamine] | 0.25 to 2.5 | > 2.5 |
| CN1CCCC1CCNCc1cc(/C=N/C2CC2)ccn1 (stereo not drawn) [Compound 40, N-{[2-({[2-(l-methylpyrrolidin-2-yl)ethyl]amino}methyl)-pyridin-4-yl]methylidene}-cyclopropanamine] | > 2.5 | 0.25 to 2.5 |
